Results as given in patent US10597388B2, “Pyridazinone herbicides” (FMC CORPORATION, priority 2014, dated 2020).

Tests used:
Test in all cases: Test C greenhouse herbicide test, pre- and postemergence
Assay type in all cases: in vivo
[1] = tested on: blackgrass (Alopecurus myosuroides)
Procedure, shortened: (§1)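 Greenhouse pots; pre-em on seeded loam:sand blend, post-em on 2–18 cm plants (1–4 leaf) in sphagnum peat/vermiculite medium. Formulation: non-phytotoxic solvent + surfactant. Read-out: visual % control (0–100) vs controls at 13–15 d.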

corn (Zea mays) = tested on: corn (Zea mays)
Procedure, shortened: as §1

[2] = tested on: crabgrass, large (large crabgrass, Digitaria sanguinalis)
Procedure, shortened: as §1

[3] = tested on: foxtail, giant (giant foxtail, Setaria faberii)
Procedure, shortened: as §1

[4] = tested on: galium (catchweed bedstraw, Galium aparine)
Procedure, shortened: as §1

[5] = tested on: johnsongrass (Sorghum halepense)
Procedure, shortened: as §1

[6] = tested on: lambsquarters (Chenopodium album)
Procedure, shortened: as §1

[7] = tested on: morningglory (Ipomoea coccinea)
Procedure, shortened: as §1

[8] = tested on: nutsedge, yellow (yellow nutsedge, Cyperus esculentus)
Procedure, shortened: as §1

[9] = tested on: oilseed rape (Brassica napus)
Procedure, shortened: as §1

[10] = tested on: pigweed (Amaranthus retroflexus)
Procedure, shortened: as §1

[11] = tested on: ryegrass, Italian (Italian ryegrass, Lolium multiflorum)
Procedure, shortened: as §1

soybean (Glycine max) = tested on: soybean (Glycine max)
Procedure, shortened: as §1

[12] = tested on: velvetleaf (Abutilon theophrasti)
Procedure, shortened: as §1

[13] = tested on: waterhemp (common waterhemp, Amaranthus rudis)
Procedure, shortened: as §1

[14] = tested on: wheat (winter wheat, Triticum aestivum)
Procedure, shortened: as §1

[15] = Postemergence, 31 g ai/ha, 0 to 100 scale (0 no effect, 100 complete control)
[16] = Postemergence, 125 g ai/ha, scale 0 to 100, 0 is no effect, 100 is complete control
[17] = Postemergence, 250 g ai/ha, scale 0 to 100, 0 no effect, 100 complete control, 13 to 15 d
[18] = Preemergence, 31 g ai/ha, scale 0 to 100, 0 is no effect, 100 is complete control
[19] = Preemergence, 62 g ai/ha, scale 0 to 100, 0 is no effect, 100 is complete control
[20] = Preemergence, 125 g ai/ha, scale 0 to 100, 0 is no effect, 100 is complete control
[21] = Preemergence, 250 g ai/ha, scale 0 to 100 (0 no effect, 100 complete control)
[22] = postemergence, 62 g ai/ha, scale 0 to 100, 0 no effect, 100 complete control

**Q.** What does the source list for `CCOC(=O)Oc1c(C)nn(C)c(=O)c1-c1c(C)sc2c(C)cc(C)cc12` [Compound 83]?
**A.** Blackgrass plant response rating [1, 15]: 40; Plant response rating, Blackgrass [1, 16]: 90; Plant response rating, Blackgrass [1, 17]: 90; Plant response rating, Blackgrass [1, 18]: 70; Plant response rating, Blackgrass [1, 19]: 80; Plant response rating, Blackgrass [1, 20]: 80; Blackgrass plant response rating [1, 21]: 90; Blackgrass plant response rating [1, 22]: 80; Corn plant response rating (corn (Zea mays); [15]): 5; Plant response rating, Corn (corn (Zea mays); [16]): 10; Plant response rating, Corn (corn (Zea mays); [17]): 10; Plant response rating, Corn (corn (Zea mays); [18]): 0; Plant response rating, Corn (corn (Zea mays); [19]): 0; Plant response rating, Corn (corn (Zea mays); [20]): 0; Corn plant response rating (corn (Zea mays); [21]): 10; Corn plant response rating (corn (Zea mays); [22]): 5; Plant response rating, Crabgrass, Large [2, 16]: 40; Plant response rating, Crabgrass, Large [2, 17]: 55; Plant response rating, Crabgrass, Large [2, 18]: 75; Plant response rating, Crabgrass, Large [2, 19]: 65; Plant response rating, Crabgrass, Large [2, 20]: 70; Crabgrass, Large plant response rating [2, 21]: 85; Crabgrass, Large plant response rating [2, 22]: 25; Plant response rating, Foxtail, Giant [3, 16]: 85; Plant response rating, Foxtail, Giant [3, 17]: 90; Plant response rating, Foxtail, Giant [3, 18]: 85; Plant response rating, Foxtail, Giant [3, 19]: 100; Plant response rating, Foxtail, Giant [3, 20]: 100; Foxtail, Giant plant response rating [3, 21]: 100; Foxtail, Giant plant response rating [3, 22]: 85; Plant response rating, Galium [4, 16]: 100; Plant response rating, Galium [4, 17]: 100; Plant response rating, Galium [4, 18]: 90; Plant response rating, Galium [4, 19]: 90; Plant response rating, Galium [4, 20]: 95; Galium plant response rating [4, 21]: 95; Galium plant response rating [4, 22]: 90; Plant response rating, Johnsongrass [5, 16]: 5; Plant response rating, Johnsongrass [5, 17]: 10; Plant response rating, Johnsongrass [5, 18]: 65; Plant response rating, Johnsongrass [5, 19]: 75; Plant response rating, Johnsongrass [5, 20]: 60; Johnsongrass plant response rating [5, 21]: 70; Johnsongrass plant response rating [5, 22]: 5; Plant response rating, Lambsquarters [6, 16]: 85; Plant response rating, Lambsquarters [6, 17]: 98; Plant response rating, Lambsquarters [6, 18]: 80; Plant response rating, Lambsquarters [6, 19]: 85; Plant response rating, Lambsquarters [6, 20]: 95; Lambsquarters plant response rating [6, 21]: 100; Lambsquarters plant response rating [6, 22]: 85; Plant response rating, Morningglory [7, 16]: 100; Plant response rating, Morningglory [7, 17]: 98; Plant response rating, Morningglory [7, 18]: 85; Plant response rating, Morningglory [7, 19]: 90; Plant response rating, Morningglory [7, 20]: 95; Morningglory plant response rating [7, 21]: 98; Morningglory plant response rating [7, 22]: 90; Plant response rating, Nutsedge, Yellow [8, 16]: 85; Plant response rating, Nutsedge, Yellow [8, 17]: 90; Plant response rating, Nutsedge, Yellow [8, 18]: 85; Plant response rating, Nutsedge, Yellow [8, 19]: 90; Plant response rating, Nutsedge, Yellow [8, 20]: 85; Nutsedge, Yellow plant response rating [8, 21]: 95; Nutsedge, Yellow plant response rating [8, 22]: 80; Plant response rating, Oilseed Rape [9, 16]: 45; Plant response rating, Oilseed Rape [9, 17]: 70; Plant response rating, Oilseed Rape [9, 18]: 0; Plant response rating, Oilseed Rape [9, 19]: 0; Plant response rating, Oilseed Rape [9, 20]: 50; Oilseed Rape plant response rating [9, 21]: 50; Oilseed Rape plant response rating [9, 22]: 0; Plant response rating, Pigweed [10, 16]: 90; Plant response rating, Pigweed [10, 17]: 90; Plant response rating, Pigweed [10, 18]: 100; Plant response rating, Pigweed [10, 19]: 100; Plant response rating, Pigweed [10, 20]: 100; Pigweed plant response rating [10, 21]: 100; Pigweed plant response rating [10, 22]: 85; Plant response rating, Ryegrass, Italian [11, 16]: 90; Plant response rating, Ryegrass, Italian [11, 17]: 95; Plant response rating, Ryegrass, Italian [11, 18]: 90; Plant response rating, Ryegrass, Italian [11, 19]: 90; Plant response rating, Ryegrass, Italian [11, 20]: 90; Ryegrass, Italian plant response rating [11, 21]: 90; Ryegrass, Italian plant response rating [11, 22]: 90; Plant response rating, Soybean (soybean (Glycine max); [16]): 0; Plant response rating, Soybean (soybean (Glycine max); [17]): 10; Plant response rating, Soybean (soybean (Glycine max); [18]): 30; Plant response rating, Soybean (soybean (Glycine max); [19]): 0; Plant response rating, Soybean (soybean (Glycine max); [20]): 0; Soybean plant response rating (soybean (Glycine max); [21]): 0; Soybean plant response rating (soybean (Glycine max); [22]): 0; Plant response rating, Velvetleaf [12, 16]: 90; Plant response rating, Velvetleaf [12, 17]: 90; Plant response rating, Velvetleaf [12, 18]: 35; Plant response rating, Velvetleaf [12, 19]: 70; Plant response rating, Velvetleaf [12, 20]: 85; Velvetleaf plant response rating [12, 21]: 90; Velvetleaf plant response rating [12, 22]: 90; Plant response rating, Waterhemp [13, 16]: 60; Plant response rating, Waterhemp [13, 17]: 80; Plant response rating, Waterhemp [13, 18]: 60; Plant response rating, Waterhemp [13, 19]: 90; Plant response rating, Waterhemp [13, 20]: 100; Waterhemp plant response rating [13, 21]: 100; Waterhemp plant response rating [13, 22]: 85; Plant response rating, Wheat [14, 16]: 0; Plant response rating, Wheat [14, 17]: 0; Plant response rating, Wheat [14, 18]: 0; Plant response rating, Wheat [14, 19]: 0; Plant response rating, Wheat [14, 20]: 0; Wheat plant response rating [14, 21]: 0; Wheat plant response rating [14, 22]: 0
